Test results from US20130310416A1, “Methods and Compositions for Preventing or Treating Age-Related Diseases” (Tartis-Aging, LLC, priority 2006, published 2013).

Assays:
[1] = tested on: rodents; conditions: rodents (Anisimov et al., 2005); cited from earlier work
[2] = rapamycin administration (Kahan, 2004; Rodriguez et al., 2006); cited from earlier work
[3] = tested on: WI-38 fibroblasts; experiment: doxorubicin exposure, induction of cell senescence; format: cell-based, human; conditions: exposure to doxorubicin, FIG. 2
Protocol: To illustrate the relationship between the TOR pathway and cell senescence, experiments were performed using WI-38 fibroblasts, a cell line that is commonly used to investigate cell senescence (Sarraj et al., 2001). […] Cell senescence is characterized by a large and flat cell morphology, beta-galactosidase expression in the cytoplasm as a terminal, non-replicative condition.

[4] = tested on: tumor growth; conditions: in vitro and in vivo models; cited from earlier work

[H]/N=C(/N)N/C(=N/[H])NCCc1ccccc1 [phenformin]
life span [1]: extend life span

CN(C)C(=N)N=C(N)N [metformin]
life span [1]: extend life span

CO[C@H]1C[C@@H]2CC[C@@H](C)[C@@](O)(O2)C(=O)C(=O)N2CCCC[C@H]2C(=O)O[C@H]([C@H](C)C[C@@H]2CC[C@@H](O)[C@H](OC)C2)CC(=O)[C@H](C)/C=C(\C)[C@@H](O)[C@@H](OC)C(=O)[C@H](C)C[C@H](C)/C=C/C=C/C=C/1C [rapamycin]
most common side effect [2]: increase of blood lipids

COc1cccc2c1C(=O)c1c(O)c3c(c(O)c1C2=O)C[C@@](O)(C(=O)CO)C[C@@H]3O[C@H]1C[C@H](N)[C@H](O)[C@H](C)O1 [doxorubicin]
induction of cell senescence [3]: induces accelerated cell senescence

CO[C@H]1C[C@@H]2CC[C@@H](C)[C@@](O)(O2)C(=O)C(=O)N2CCCC[C@H]2C(=O)O[C@H]([C@H](C)C[C@@H]2CC[C@@H](OC(=O)C(C)(CO)CO)[C@H](OC)C2)CC(=O)[C@H](C)/C=C(\C)[C@@H](O)[C@@H](OC)C(=O)[C@H](C)C[C@H](C)/C=C/C=C/C=C/1C [CCI-779, Rapamycin 42-ester with 3-hydroxy-2-(hydroxymethyl)-2-methylpropionic acid]
effect on tumor growth [4]: significant inhibitory effects on tumor growth
